Experimental data taken from patent US6436997B1, “Endogenous nitric oxide synthesis under conditions of low oxygen tension” (NitroMed, Inc., priority 1998, dated 2002).

Experiments:
rat aortic segments = experiment: Relaxation of norepinephrine-contracted rat aortic segments from non-diabetic and diabetic rats; assay type: cell-based; conditions: for effect on acetylcholine induced relaxation of aorta segments / effect on acetylcholine induced relaxation of aortic rings: 10 μM test drug, 10 nM-10 μM ACh, normoxia; for effect on acetylcholine induced relaxation of aorta segments: diabetic rats, FIG. 10B; for effect on acetylcholine induced relaxation of aortic rings: non-diabetic rats, FIG. 10A
Experimental: Diabetes was induced in rats by the administration of a single injection of steptozotocin (60 mg/kg; i.p). Diabetic rats remained untreated for a total of 8 weeks. […] Rats were anesthetized with diethyl ether and exsanguinated. The thoracic aorta was then removed and the tissue dissected free from the surrounding periadventitial fat and connective tissue, taking precautions to avoid touching the luminal surface. The tissue was cut into 8 segments, each approximately 3-4 mm in length. Rat aortic segments were maintained at 4-6° C. Krebs-bicarbonate buffer (composition per millimolar: NaCl, 120; KCl, 5.6; MgCl2, 1.2; NaH2PO4, 1.2; dextrose, 10; NaHCO3, 25; CaCl2 2.5; pH 7.4) until used. Aortic segments were typically used between 2 and 16 hrs from extraction. […] Each aortic tissue strip was submitted to 1.5 g of resting tension. […] The aortic segments were then contracted with submaximal concentration of norepinephrine and the contraction as allowed to reach a steady state level. Once a steady state of muscle tension was reached, the tissue was exposed to various concentrations of test compounds and the relaxation responses were recorded. Relaxation responses were expressed as a percentage of total relaxation induced by a supramaximal addition of papaverine (total loss of tone) at the end of the experiment. In FIGS. 7-12, the data are expressed as mean±standard mean error.

[1] = system: rabbit corpus cavernosum tissue; experiment: Relaxation of phenylephrine-contracted corpus cavernosum tissue strips in organ chambers; assay type: cell-based; conditions: for effect on N-hydroxy-L-arginine induced relaxation / effect on hydroxylamine induced relaxation: 20% O2; for effect on hydroxylamine induced relaxation: increasing hydroxylamine
Experimental: (§1) Rabbits were euthanized with an overdose of intravenous pentobarbital (60 mg/kg) and immediately exsanguinated. The entire penis was then removed and the corpus cavernosum tissue dissected free from the surrounding tunica albuginea and cut into strgips (3×3×7 mm). Corpus cavernosum tissues were maintained at 4-6° C. in M-400 solution (composition per 100 ml: mannitol, 4.19 g; KH2PO4, 0.205 g; K2HPO4.3H2O, 0.97 g; KCl, 0.112 g; NaHCO3, 0.084 g) until used. Corpus cavernosum tissues were typically used between 2 and 16 hrs from extraction.
Corpus cavernosum tissue was prepared as described in Example 1. For experimentation to measure relaxation of the tissue under various conditions, the corpus cavernosum tissues were then suspended in 10 ml organ chambers and bathed in a physiological salt solution, maintained at 37° C. and aerated with 5% CO2/95% air, pH 7.4. Each corpus cavernosum tissue strip was incrementally stretched to optimal isometric tension as determined by the maximal contractile response to 1 μM phenylephrine. After several exchanges of fresh physiological solution, the media was bubbled with gas mixtures containing 5% CO2, the indicated amount of oxygen (between 0% and 20%) and the remaining percentage was N2, for thirty minutes. Corpus cavernosum tissues were then contracted with a submaximal concentration of phenylephrine, and the contraction was allowed to reach a steady state level. Once a steady state of muscle tension was reached, the tissue was exposed to various concentrations of test compounds, and the relaxation responses were recorded. Relaxation responses were expressed as a percentage of total relaxation induced by a supramaximal addition of papaverine (total loss of tone) at the end of the experiment. The data in FIGS. 3-6 are expressed as mean±standard mean error

[2] = system: rabbit corpus cavernosum tissue; experiment: cGMP production (basal and acetylcholine stimulated) by corpus cavernosum tissue strips, ELISA; assay type: cell-based; conditions: for cGMP concentration in acetylcholine stimulated tissue compared to basal values (ACh alone): 300 μM test drug + 30 μM ACh, under normoxia (20% O2) and hypoxia (0% O2), FIGS. 2A/2B; for basal cGMP production: normoxic (20% O2), vs vehicle control, FIG. 1
Experimental: as §1
Measurement of cyclic GMP in corpus cavernosal tissues was carried out as follows. Corpus cavernosal tissue strips were immersed in a 10 ml organ chamber containing physiological salt solution, maintained at 37° C. and aerated with 5% CO2/95% air, pH 7.4. Each strip was incrementally stretched to optimal isometric tension, as determined by maximal contractile responses to 1 μM phenylephrine ((R)-3-hydroxy-α-[(methylamino)methyl]-benzenemethanol hydrochloride). The physiological salt solution was then replaced with one bubbled with either 20% oxygen or 0% oxygen and the tissues were then given 0.5 μM phenylephrine, 30 μM Zaprinast and 100 μM IBMX (3-isobutyl-1-methylxanthine, […]) and incubated for 15 minutes; after which time each tissue was incubated with the test drug (or control drug) at various concentrations or with vehicle (the buffer in which the drugs are delivered). Tissues were incubated for another 5 minutes then immediately frozen in liquid nitrogen and stored at −80° C. until extraction for cyclic nucleotide assay. Tissues were extracted by homogenization in 6% trichloroacetic acid followed by ether (H2O-saturated) extraction and lyophilization. cGMP levels were determined by ELISA using a kit from Cayman Chemical Co. (Ann Arbor, Mich.).
Protein concentration in the corpus cavernosum tissue was determined using the Bio-Rad Protein Assay Kit microtiter plate assay procedure (Bio-Rad, Hercules, Calif.) with bovine serum albumin as the standard.

[3] = system: left hindlimb of autoperfused non-diabetic or diabetic rats; experiment: Vasoactive response (hindlimb perfusion pressure) of anesthetized autoperfused rats; assay type: in vivo, rat; conditions: bolus infusion 0.1-10 mg/kg, pressure elevated by norepinephrine 2 μg/min/kg, FIGS. 12A/12B
Experimental: The left hindlimb of the anesthetized rats were perfused through the femoral artery at a constant rate of 3.3 ml/min/kg with blood from the carotid artery by means of a peristaltic pump. The vasoactive response induced by the bolus infusion of increasing concentrations of L-arginine or N-hydroxy-L-arginine into the left hindlimb of autoperfused non-diabetic or diabetic rats was determined by measuring the change in the perfusion pressure, which was previously elevated by a norepinephrine constant infusion (2 μg/min/kg).

[4] = estimated; cited from earlier work
[5] = 0.1 mM L-NNA or 0.02 mM ODQ, increasing N-hydroxy-L-arginine, FIG. 4A
[6] = 0.1 mM L-NNA or 0.02 mM ODQ, FIG. 4B

COC(=O)[C@@H](N)CCCNC(=N)N[N+](=O)[O-] [L-NAME, N^G-nitro-L-arginine methyl ester]
effect on N-hydroxy-L-arginine induced relaxation of aorta segments (rat aortic segments; 10 μM inhibitor, normoxic, non-diabetic and diabetic rats, FIGS. 9A/9B): significantly decreased the measured relaxation

N=C(NCCC[C@H](N)C(=O)O)N[N+](=O)[O-] [L-NNA, N^G-nitro-L-arginine]
effect on N-hydroxy-L-arginine induced relaxation ([1]; 0.1 mM L-NNA added together with 0.1 mM miconazole, FIG. 3): does decrease the effectiveness of N-hydroxy-L-arginine to relax the tissue | effect on N-hydroxy-L-arginine induced relaxation [1, 5]: significantly decreased the measured relaxation | effect on hydroxylamine induced relaxation [1, 6]: had no effect

N=C(N)NCCC[C@H](N)C(=O)O [L-arginine]
cGMP concentration in acetylcholine stimulated tissue compared to basal values (ACh alone) [2]: not effective to statistically increase the concentration of cGMP | basal cGMP production ([2]; 300 μM test drug): stimulated cGMP production approximately equally | effect on acetylcholine induced relaxation of aorta segments (rat aortic segments): resulted in a decreased relaxation | effect on acetylcholine induced relaxation of aortic rings (rat aortic segments): do not effect the relaxation of aortic rings | change in hindlimb perfusion pressure, non-diabetic versus diabetic rats [3]: the pressure change was greater for the non-diabetic rats compared to diabetic rats | tissue relaxation at 1 mM ([1]; oxygen concentrations of 0%, 1%, 2% and 5% (data not shown)): no measurable effect on tissue relaxation

NC(=NCCC[C@H](N)C(=O)O)NO [N-hydroxy-L-arginine, N^G-hydroxy-L-arginine]
basal cGMP production ([2]; 30 μM test drug): stimulated cGMP production approximately equally | cGMP concentration in acetylcholine stimulated tissue compared to basal values (ACh alone) [2]: statistically significant increase in the concentration of cGMP | basal cGMP production ([2]; 300 μM test drug): effective to stimulate a higher concentration of cGMP production | induced relaxation, diabetic versus non-diabetic aortic segments (rat aortic segments; 1 μM, 95% O2, FIG. 8): more effective in inducing the relaxation of aortic segments obtained from diabetic rats | effect on acetylcholine induced relaxation of aorta segments (rat aortic segments): increased the relaxation | effect on acetylcholine induced relaxation of aortic rings (rat aortic segments): do not effect the relaxation of aortic rings | induced relaxation of aortic segments compared with L-arginine (rat aortic segments; 95% O2, 100 nM-100 μM, non-diabetic and diabetic rats, FIGS. 7A/7B): more effective in inducing relaxation in both non-diabetic and diabetic rats | change in hindlimb perfusion pressure, non-diabetic versus diabetic rats [3]: no difference in the perfusion pressure | tissue relaxation at 1 mM ([1]; all oxygen concentrations (0%, 1%, 2%, 5%, 20%), FIG. 6): significant relaxation of the tissue

O=c1onc2cnc3ccccc3n12 [ODQ, 1H-[1,2,4]oxadiazolo[4,3,a]quinoxalin-1-one]
effect on N-hydroxy-L-arginine induced relaxation [1, 5]: significantly decreased the measured relaxation | effect on hydroxylamine induced relaxation [1, 6]: significantly decreased the relaxation

NO [hydroxylamine]
relaxation of corpus cavernosum tissue by the substance itself ([1]; 20% O2, 1 nM to 1000 μM, FIG. 4B): induces the relaxation of the tissue

Clc1ccc(COC(Cn2ccnc2)c2ccc(Cl)cc2Cl)c(Cl)c1 (stereo not drawn) [miconazole]
effect on N-hydroxy-L-arginine induced relaxation ([1]; 0.1 mM miconazole, increasing N-hydroxy-L-arginine 1-1000 μM, FIG. 3): does not significantly effect the relaxation of the tissues

[N]=O [nitric oxide]
half-life in biological tissues [4]: less than one second
